This note sets out measurements from ChEMBL document CHEMBL1157568, “Toward biophysical probes for the 5-HT3 receptor: structure-activity relationship study of granisetron derivatives” (J Med Chem, 2010).

The target of test [1] is T1, 5-hydroxytryptamine receptor 3A (Homo sapiens, UniProt P46098).
T1 sequence (P46098 whole entry): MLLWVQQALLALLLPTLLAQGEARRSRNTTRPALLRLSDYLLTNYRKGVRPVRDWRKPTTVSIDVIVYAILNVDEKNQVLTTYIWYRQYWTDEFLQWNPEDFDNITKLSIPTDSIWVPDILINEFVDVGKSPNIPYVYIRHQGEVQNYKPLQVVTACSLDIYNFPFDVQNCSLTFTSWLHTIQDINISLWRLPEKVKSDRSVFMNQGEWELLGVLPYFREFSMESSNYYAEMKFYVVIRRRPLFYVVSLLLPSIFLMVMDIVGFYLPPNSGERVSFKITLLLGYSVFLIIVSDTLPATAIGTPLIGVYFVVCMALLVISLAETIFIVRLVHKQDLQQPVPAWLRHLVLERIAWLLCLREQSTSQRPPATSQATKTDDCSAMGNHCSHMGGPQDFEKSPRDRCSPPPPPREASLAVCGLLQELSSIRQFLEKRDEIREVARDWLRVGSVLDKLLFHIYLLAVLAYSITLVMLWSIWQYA
As to the kind of experiment: Binding affinity to human 5HT3A receptor in HEK293 cells assessed as cell labeling by confocal microscopy. It is filed as cell-based.

The target of test [2] is T2, 5-hydroxytryptamine receptor 3A (Homo sapiens) (UniProt P46098).
T2 sequence (whole entry): T1 sequence (P46098 whole entry)
As to the kind of experiment: Binding affinity to human 5HT3A receptor in HEK293 cells assessed as cell labeling by confocal microscopy in presence of quipazine. It is filed as cell-based.

Activity calls are given as the source filed them. The rule behind the calls is not given here.

As a reminder, the Ki is the equilibrium dissociation constant of an inhibitor or competing ligand from its target. As for `Cc1cc(C)n2c1C=C1C=CC(NCC(=O)NCCCn3nc(C(=O)N[C@H]4C[C@H]5CCC[C@@H](C4)N5C)c4ccccc43)=[N+]1[B-]2(F)F`, in test [1], the Ki worked out at 2.8 nM. In test [2], the outcome was Active.
